Patent US8017350B2, “Glimepiride- and insulin-induced glycosylphosphatidylinositol-specific phospholipase C regulation” (Sanofi-Aventis Deutschland GmbH, priority 2004, dated 2011)

How the values were obtained:
[1] = test system: pp59Lyn and IRS-1 in isolated rat adipocytes; test: tyrosine phosphorylation of pp59Lyn and IRS-1; format: cell-based
Description: Polypeptides separated by SDS-PAGE were transferred to polyvinylidene difluoride membranes using the semidry procedure as described in “Müller, G. et al., (2001) Mol. Cell. Biol. 21: 4553-4567”. Washed membranes were incubated with anti-caveolin-1 (1:2000), anti-pp59^Lyn (1:1250), anti-aP (1:500), anti-5′-Nuc (1:750) and anti-IRS-1 (1:2000) antibodies for 4 h at 15° C. Washed membranes were incubated with horseradish peroxidase-coupled secondary goat anti-mouse (1:2000) or goat anti-rabbit IgG (1:4000) antibodies. Labeled proteins were visualized by enhanced chemiluminescence.
FIG. 7: Effect of GPI-2350 on the glimepiride/insulin-induced activation of signaling proteins. Isolated rat adipocytes were treated (5 min, 37° C.) without or with GPI-2350 (Panels A, 50 μM; Panels B, increasing conc.) and then incubated (120 min, 37° C.) in the absence or presence of insulin (10 nM) or glimepiride (20 μM). IRS-1 and pp59^Lyn were immunoprecipitated from the defatted postnuclear infranatant (see Materials and Methods) and solubilized combined hc/lcDIGs, respectively, and then immunoblotted for phosphotyrosine. […]

[2] = test system: GPI-PLC, hcDIGs of rat adipocytes; format: biochemical; settings: isolated hcDIGs; concentration-dependent
[3] = molecular target: T1, rat serum GPI-PLD (Rattus norvegicus, UniProt Q8R2H5); test: GPI-PLD (rat serum) assay, human placental aP substrate; format: biochemical; settings: FIG. 2; read-out: apparent IC50
T1 construct: GPI-PLD (rat serum) was assayed according to; from tissue; host or cells: rat serum
Description: GPI-PLD (rat serum) was assayed according to “Hari et al. (1997) Biochim. Biophys. Acta 1355: 293-302” by incubation with 10 μl of human placental aP solution (100 U/ml in 10 mM Hepes/NaOH, pH 7.0, 150 mM NaCl) in 100 μl of 200 mM Tris/maleate (pH 7.0) and 1% Nonidet P-40 for 10 min at 37° C. and subsequent termination of the reaction by addition of 0.4 ml of ice-cold stop buffer (10 mM Hepes/NaOH, pH 7.0, 150 mM NaCl, 0.1 mM MgCl2 and 0.01 mM zinc acetate). GPI-PLC (T. brucei) was assayed as described in “Mensa-Wilmot et al. (1995) Methods Enzymol. […]
Pelleted hc/lcDIGs (10-50 μg protein) or (G)PI-PLC reaction mixtures (0.5 ml) were separated into amphiphilic and hydrophilic proteins using partitioning between TX-114-enriched and depleted phases according to “Bordier, C., (1981) J. Biol, Chem. […]” by suspending in 1 ml of ice-cold TX-114 (1%), 25 mM Tris/HCl (pH 7.4), 144 mM NaCl or mixing with 0.5 ml of ice-cold TX-114 (2%), respectively. […] After re-extraction of the lower TX-114-enriched phase, aliquots of the pooled upper TX-114-depleted phase were measured for 5′-Nuc, aP and AChE activity or precipitated (15 polyethylene glycol 4000) for SDS-PAGE analysis.
FIG. 2: Potency of GPI-2350. […] The lipolytic activity was calculated as % of the control reaction in the absence of GPI-2350 (set at 100%). […]

T1 sequence (Q8R2H5 24-843): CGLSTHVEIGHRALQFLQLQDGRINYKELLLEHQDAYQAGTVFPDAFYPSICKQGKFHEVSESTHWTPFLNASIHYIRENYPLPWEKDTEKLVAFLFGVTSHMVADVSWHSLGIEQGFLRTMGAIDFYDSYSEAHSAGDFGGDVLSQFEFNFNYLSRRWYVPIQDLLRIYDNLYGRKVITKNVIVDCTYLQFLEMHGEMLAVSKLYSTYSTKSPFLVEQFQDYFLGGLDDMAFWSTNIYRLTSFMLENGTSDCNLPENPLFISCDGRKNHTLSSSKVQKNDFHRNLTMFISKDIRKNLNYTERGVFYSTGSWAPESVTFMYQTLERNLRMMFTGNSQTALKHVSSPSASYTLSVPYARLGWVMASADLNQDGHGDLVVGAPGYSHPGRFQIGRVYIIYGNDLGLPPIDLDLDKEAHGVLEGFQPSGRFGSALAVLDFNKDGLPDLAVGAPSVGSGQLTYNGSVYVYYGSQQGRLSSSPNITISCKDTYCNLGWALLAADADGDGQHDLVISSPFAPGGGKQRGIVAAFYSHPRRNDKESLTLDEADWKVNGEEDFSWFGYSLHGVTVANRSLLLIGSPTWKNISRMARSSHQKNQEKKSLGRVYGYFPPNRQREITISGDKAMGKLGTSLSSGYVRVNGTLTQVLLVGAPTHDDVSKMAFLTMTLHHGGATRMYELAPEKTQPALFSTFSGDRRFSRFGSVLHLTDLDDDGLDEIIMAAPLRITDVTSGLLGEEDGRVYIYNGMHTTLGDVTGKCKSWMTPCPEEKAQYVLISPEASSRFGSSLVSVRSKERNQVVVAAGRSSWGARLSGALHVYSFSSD

CCCCCCCCCCCCP1(=O)O[C@@H]2[C@H](O)[C@@H](O)[C@H](O)[C@@H](O)[C@@H]2O1 (stereo partly shown) [GPI-2350, myo-inositol-1,2-cyclo-dodecylphosphonic acid]
effect on insulin-induced tyrosine phosphorylation of IRS-1 [1]: only marginally reduced | effect on tyrosine phosphorylation of pp59Lyn and IRS-1 in response to glimepiride ([1]; 50 μM): almost complete blockade | reduction of basal and glimepiride-/insulin-stimulated GPI-PLC activity [2]: to lower than basal and similar levels | IC50 [3]: 1000 nM
